Data taken from patent US20040082635A1, “Fused cyclic compounds and medicinal use thereof” (priority 2001, published 2004).
Where a name gives a salt, the structure may show the parent alone.

Biological target: T1, HCV polymerase (Hepatitis C virus genotype 1b, UniProt P26663)
T1 construct: a region encoding NS5B (591 amino acids; J Virol 1991 Mar, 65(3), 1105-13) was amplified by PCR; 6 His (N); made in house; host or cells: Escherichia coli
Assay: biochemical
Settings: HCV polymerase inhibitory activity IC50

T1 sequence (P26663 2420-3010): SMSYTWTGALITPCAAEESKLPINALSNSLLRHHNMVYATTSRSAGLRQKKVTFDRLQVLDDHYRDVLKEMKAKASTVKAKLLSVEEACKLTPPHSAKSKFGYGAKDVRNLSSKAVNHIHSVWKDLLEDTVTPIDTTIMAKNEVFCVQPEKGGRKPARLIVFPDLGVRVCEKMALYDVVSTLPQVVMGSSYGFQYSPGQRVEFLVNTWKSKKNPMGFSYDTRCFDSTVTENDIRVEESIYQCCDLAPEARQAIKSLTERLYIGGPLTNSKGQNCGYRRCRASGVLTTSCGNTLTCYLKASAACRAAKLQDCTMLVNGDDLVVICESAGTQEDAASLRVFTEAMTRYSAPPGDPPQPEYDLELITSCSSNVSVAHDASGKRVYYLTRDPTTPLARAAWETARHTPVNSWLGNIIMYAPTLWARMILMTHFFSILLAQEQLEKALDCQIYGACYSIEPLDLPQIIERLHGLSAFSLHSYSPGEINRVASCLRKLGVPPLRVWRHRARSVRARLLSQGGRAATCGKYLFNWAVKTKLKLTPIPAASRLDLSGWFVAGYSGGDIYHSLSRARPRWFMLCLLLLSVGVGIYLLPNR

For `CN(C)C(=O)c1ccc(-c2ccc(Cl)cc2)c(COc2ccc(-c3nc4cc(C(=O)O)ccc4n3C3CCCCC3)cc2)c1` [Example 232, 2-{4-[2-(4-chlorophenyl)-5-dimethylcarbamoylbenzyloxy]phenyl}-1-cyclohexylbenzimidazole-5-carboxylic acid], the IC50 was 15 nM.

Same assay, conditions: read-out: HCV polymerase inhibitory activity IC50

In order of rising IC50:
1. CNC(=O)c1ccc(-c2ccc(Cl)cc2)c(COc2ccc(-c3nc4cc(C(=O)O)ccc4n3C3CCCCC3)cc2)c1 [Example 248, 2-{4-[2-(4-chlorophenyl)-5-methylcarbamoylbenzyloxy]phenyl}-1-cyclohexylbenzimidazole-5-carboxylate hydrochloride]  12 nM
2. O=C(O)c1ccc2c(c1)nc(-c1ccc(OCc3ccc(-c4nnn[nH]4)cc3-c3ccc(Cl)cc3)cc1)n2C1CCCCC1 [Example 237, 2-{4-[2-(4-chlorophenyl)-4-(5-tetrazolyl)benzyloxy]phenyl}-1-cyclohexylbenzimidazole-5-carboxylic acid]  15 nM
3. O=C(O)c1ccc2c(c1)nc(-c1ccc(OCc3cccnc3-c3ccc(Cl)cc3)cc1)n2C1CCCCC1 [Example 234, 2-{4-[{2-(4-chlorophenyl)-3-pyridyl}methoxy]phenyl}-1-cyclohexylbenzimidazole-5-carboxylic acid dihydrochloride]  22 nM
4. CC(C)(C)NS(=O)(=O)c1ccc(-c2ccc(Cl)cc2)c(COc2ccc(-c3nc4cc(C(=O)O)ccc4n3C3CCCCC3)cc2)c1 [Example 249, 2-{4-[3-(tert-butylsulfamoyl)-6-(4-chlorophenyl)benzyloxy]-phenyl}-1-cyclohexylbenzimidazole-5-carboxylic acid]  22 nM
5. O=C(O)c1ccc2c(c1)nc(-c1ccc(OCc3ncccc3-c3ccc(Cl)cc3)cc1)n2C1CCCCC1 [Example 235, 2-{4-[{3-(4-chlorophenyl)-2-pyridyl}methoxy]phenyl}-1-cyclohexylbenzimidazole-5-carboxylic acid]  36 nM
6. O=C(O)c1ccc2c(c1)nc(-c1ccc(OCc3sc(CO)nc3-c3ccc(F)cc3)cc1)n2C1CCCCC1 [Example 254, 1-cyclohexyl-2-{4-[{4-(4-fluorophenyl)-2-hydroxymethyl-5-thiazolyl}methoxy]phenyl}benzimidazole-5-carboxylic acid]  38 nM
7. Cc1nc(-c2ccc(C(=O)N(C)C)cc2)c(COc2ccc(-c3nc4cc(C(=O)O)ccc4n3C3CCCCC3)cc2)s1 [Example 231, 1-cyclohexyl-2-{4-[{4-(4-dimethylcarbamoylphenyl)-2-methyl-5-thiazolyl}methoxy]phenyl}benzimidazole-5-carboxylic acid]  73 nM
8. CNc1nc(Oc2ccc(-c3nc4cc(C(=O)O)ccc4n3C3CCCCC3)cc2)nc(-c2cccc(Cl)c2)n1 [Example 236, 2-{4-[2-(3-chlorophenyl)-4-methylamino-1,3,5-triazin-6-yloxy]phenyl}-1-cyclohexylbenzimidazole-5-carboxylic acid trifluoroacetate]  75 nM
9. O=C(O)c1ccc2c(c1)nc(-c1ccc(Oc3cc(OCc4ccncc4)ncn3)cc1)n2C1CCCCC1 [Example 239, 1-cyclohexyl-2-{4-[4-(4-pyridylmethoxy)-6-pyrimidinyloxy]phenyl}-benzimidazole-5-carboxylic acid]  170 nM
10. O=C(O)c1ccc2c(c1)nc(-c1ccc(Oc3cc(OCc4ccccc4)ncn3)cc1)n2C1CCCCC1 [Example 238, 2-[4-(4-benzyloxy-6-pyrimidinyloxy)phenyl]-1-cyclohexylbenzimidazole-5-carboxylic acid]  190 nM
11. O=C(O)c1ccc2c(c1)nc(-c1ccc(COc3ccccc3-c3ccccc3)s1)n2C1CCCCC1 [Example 252, 2-[2-(2-biphenylyloxymethyl)-5-thienyl]-1-cyclohexylbenzimidazole-5-carboxylic acid]  320 nM
12. O=C(O)c1ccc2c(c1)nc(-c1ccc(COc3ccccc3-c3ccccc3)o1)n2C1CCCCC1 [Example 253, 2-[2-(2-biphenylyloxymethyl)-5-furyl]-1-cyclohexylbenzimidazole-5-carboxylic acid]  650 nM
